Experimental data as given in patent publication US9950004B2, “Treatment and prevention of learning and memory disorders” (priority 2012, dated 2018).

Key:
capillary circulation = experiment: Laser Doppler study of creams in five human subjects (second Example 7); assay type: in vivo; conditions: positive control formulation containing 0.1% methyl nicotinate
Description: This example illustrates delivery of nitric oxide formulations to five human subjects, using procedures and formulations similar to those discussed in Example 6. Each person served as their own control for the testing. A Moor Instruments Laser Doppler was used to determine circulation. […] The formulations used produce positive, almost immediate results when applied to the skin which, in these studies, was manifested by vasodilatation of the cutaneous vascular system.
For each subject, the following creams were applied: a negative control formulation (containing no NO), 0.010 gram of a 10,000 ppm NO formulation, 0.020 gram of a 10,000 ppm NO formulation, and a positive control formulation containing 0.1% methyl nicotinate. The formulations were prepared using procedures similar to those discussed in Example 1.

[1] = test system: micro-capillary blood flow to skin; experiment: Laser Doppler study, closed Hilltop chamber on forearm, three human female subjects (Example 6); assay type: in vivo; conditions: 1/10% in alcohol applied to the skin
Description: The formulation used in these studies contained nitric oxide dispersed in a lipid matrix. […] Nitric oxide is a very rapid acting molecule, and these studies used a system that employed laser Doppler with a covered chamber. The formulation was placed into the chamber and then attached to the skin by an adhesive layer on the covering. This provided a stable measuring device as determined by multiple normal evaluations of the capillary blood flow without treatment of nitric oxide.
A known positive control, methyl nicotinate, was applied to the skin at a concentration of 1/10% in alcohol. […] The vascular dynamics are such that when the blood vessels dilate physical parameters follow Bernoulli's law. […] The laser Doppler device accurately measured these parameters.
In these studies, the participants were healthy females aged 30 to 55 years. They were in good health as determined by the medical history and were not taking any prescription medications. All study participants read and signed the informed consent statement prior to any study procedures being performed. […]
A Moor Instruments DRT4 Laser Doppler Blood Flow Monitor (Devon, England) was used in these studies. The laser Doppler technique measured blood flow in the microcapillaries of the skin that are close to the skin surface and the blood flow in underlying arterioles and venules that help to regulate skin temperature. […]

COC(=O)c1cccnc1 [methyl nicotinate]
vasodilatation (capillary circulation): vasodilatation was observed
vasodilator response (positive control) [1]: rapid response typical of the vasodilator
